Experimental data: US20210309669A1, “Heterocyclic Spiro Compounds As MAGL Inhibitors” (Pfizer Inc., priority 2018, published 2021)

Experiment: Mouse subcutaneous neuropharmacokinetics study
Type: in vivo, Male C57Bl6 mice
Conditions: male, C57Bl6, mouse, brain (cerebellum homogenate) and plasma, sc, subcutaneous dose of 1 mg/kg, read-out: Mouse Cb,u/Cp,u
Procedure: The neuropharmacokinetics studies in mouse were conducted at Wuxi (Shanghai, China) with bioanalysis conducted at BioDuro (Beijing, China) with the exception of the Comparative-compound 3, which bioanalysis was conducted at Wuxi. All in vivo studies were conducted in accordance with regulations and established guidelines using protocols reviewed and approved by the Pfizer Worldwide Research and Development (WRD, or other) Institutional Animal Care and Use Committee.
Male C57Bl6 mice were maintained on a 12-h light/dark cycle in a temperature- and humidity-controlled environment with free access to food and water. The test compounds (Examples 1 and 2 and Comparative Compounds 1-3) were administered as a subcutaneous dose of 1 mg/kg which was delivered in a dose volume of 10 mL/kg. The dose solution for all compounds was formulated in 5% DMSO/5% cremophor/90% saline. Blood and brain samples were collected at 0.5, 1, 2, 4, 8, 12, and 24 h post-dose (n=3 per time point). Blood samples were collected into tubes containing sodium fluoride and 4-(2-aminoethyl)benzenesulfonyl fluoride hydrochloride (AEBSF; final concentration 2 mg/mL) to inhibit hydrolase activity and placed on wet ice. Following centrifugation to afford plasma, the samples were transferred to polypropylene tubes and stored frozen at −20° C. to −80° C. until analysis. Immediately following blood collection the mice were euthanized by cervical dislocation and the brains were removed. The cerebellum was immediately frozen in liquid nitrogen and stored at −80° C. until analysis.
Cerebellum samples were thawed, diluted 1:4 (w/v) with water, and homogenized using an H-speed dispersator. Standards and controls were prepared in a similar manner using a brain homogenate prepared from untreated animals. The plasma standard curves were generated with species specific plasma. All plasma and brain homogenate samples were quantified via LC/MS-MS using multiple reaction monitoring with non-validated methods.
Equilibrium dialysis using standard procedures [See Di et al., “Species independence in brain tissue binding using brain homogenates”; Drug Metab Dispos 39:1270-1277, 2011) were used for determination of the unbound fraction of the test compounds (Examples 1 and 2 and Comparative Compounds 1-3) in mouse plasma (fu,p; see Di et al., “impact of recovery on fraction unbound using equilibrium dialysis”; J Pharm Sci 101:1327-1335, 2012) and unbound fraction in rat brain homogenate (fu,b; see Di et al., “Species independence in brain tissue binding using brain homogenates”; Drug Metab Dispos 39:1270-1277, 2011). The determination of the unbound fraction in plasma also included the addition of AEBSF at a final concentration of 2 mg/mL to the incubation.
The pharmacokinetic parameters were computed by non-compartmental analysis using Watson Bioanalytical LIMS version 7.5. The AUC values were calculated using the linear trapezoidal method for both brain and plasma. Measured total plasma (Cp) and brain (Cb; assuming brain tissue density of 1 g/mL) concentrations were converted to unbound (free) values using the matrix specific binding factor (fu, p or fu,b) to determine free plasma (Cp,u) and free brain (Cb,u) values. All neurocompartmental ratios (Cb,u/Cp,u) were calculated through use of AUC values with the exception of Comparative Compounds 1 and 2 which used the mean of individual animal values due to insufficient data to calculate an AUC value.

SMILES | Kp,uu (unbound brain/unbound plasma ratio)
O=C(OC(C(F)(F)F)C(F)(F)F)N1CCC2(CC1)C[C@@H](NS(=O)(=O)CC1CC1)CO2 [Example 1, 1,1,1,3,3,3-Hexafluoropropan-2-yl (3R)-3-{[(cyclopropylmethyl)sulfonyl]amino}-1-oxa-8-azaspiro[4.5]decane-8-carboxylate] | 1
O=C(OC(C(F)(F)F)C(F)(F)F)N1CCC2(CC1)C[C@@H](NS(=O)(=O)C1CC1)CO2 [Example 2, 1,1,1,3,3,3-Hexafluoropropan-2-yl (3R)-3-[(cyclopropylsulfonyl)amino]-1-oxa-8-azaspiro[4.5]decane-8-carboxylate] | 0.8
